Data on two molecules can be found in patent publication US6087375A, “Methods of treating or preventing thromboses” (priority 1999, dated 2000).

For test [1], the system named is anti-KLH-argatroban antibody. The experiment in a line: Sandwich ELISA using polyclonal anti-KLH-argatroban antibodies. It is filed as binding, rabbit. The conditions noted are these: rabbit erythrocytes treated with argatroban-C6 free acid. Here is the method: The reaction was quenched by adding hydroxylamine, pH 7.8 to a final concentration of 50 mM and incubating at room temperature for 10 minutes.
Rabbit anti-HSA monoclonal antibody (Boehringer/Mannheim, catalog no. 605001) diluted 1:5000 in PBS, pH 7.4 or mouse anti-hGPA monoclonal antibody (BioAtlan-tic/CRTS, mAb 5F4, diluted to 10 μg/ml in 0.1 M sodium acetate, pH 4.5 or mAb 3C10 diluted 1:500 or mAb 3E4 diluted 1:1000 in PBS, pH 7.4 - each antibody recognizes a different epitope of hGPA), were used to capture respective proteins by aliquotting 100 μl/well into a NUNC Maxisorp F96 plate (catalog no. 439454). The plates were incubated overnight at 4° C., were then blocked by the addition of 200 μl/well of 1% BSA/PBS and incubated at room temperature for 1 hour. The plates were then washed 5 times by submersion in PBS, pH 7.4.
Samples were incubated on the plates for 2 hours at room temperature and then were washed as above.
The plates were then incubated at room temperature for 30 minutes and washed as above.
Biotinylated goat anti-rabbit IgG (Vector, catalog no. BA1000) was diluted 1:1000 in 1% BSA/PBS, pH 7.4 and 100 μl/well added to all wells. The plates were incubated at room temperature for 30 minutes and washed as above.
Next, 100 μl/well of ABC-HRP (Vector, catalog no. PK4000) was added, each component diluted 1:500 in PBS, pH 7.4, with 0.1% TWEEN 20 and incubated 30 minutes at room temperature prior to use. The plates were then washed 10 times by submersion in PBS, pH 7.4.
For orientation: ELISA stands for enzyme-linked immunosorbent assay.

Test [2] deals with T1, thrombin from human plasma (Homo sapiens, UniProt P00734). The experiment in a line: Km-based fluorogenic assay for inhibition of thrombin (Example 7). Set-up: from tissue; host or cells: human plasma. The test is classed as biochemical. Particulars: FIGS. 9 and 10. Here is the method: Thrombin from human plasma was obtained from Enzyme System Products, Dublin, Calif., in glycerol:water 1:1, 11.4 mg/ml, 3800 U/mg, MW 36,700, and stored undiluted at -20° C. It was freshly diluted the day of use.
To dilute for the assay, 0.67 μl (25 Units) of thrombin was pipetted into 5 ml of 0.1 mg/ml BSA (from Pierce, Catalog No. 23209, BSA fraction V, a 2 mg/ml stock in saline with sodium azide), in cold PBS (GIBCO, Catalog No. 14190-136, without calcium chloride and magnesium chloride, pH 7.2) and briefly vortexed, yielding a stock of 5 mU thrombin/μl.
The substrate was N-tBOC-β-Benzyl-Asp-Pro-Arg-7-Amido4-Methylcoumarin HCl and was obtained from Sigma, Catalog No. B4028, Lot 122H0070, F.W. 770.3. Five mg was dissolved in […] DMSO for a 4 mM stock. The stock was stored in 200 μl aliquots at -20° C. in the dark.
An alternative substrate was N-tBOC-Val-Pro-Arg-7-Amido4-Methylcoumarin HCl and was obtained from Sigma, Catalog No. B-9385, Lot 53H0805, F.W. of free base 627.7. Five mg was dissolved in 1.863 ml DMSO for a 4 mM stock. The stock was stored in 200 μl aliquots at -20° C. in the dark.
The fluorescent standard was 7-Amido4-Methylcoumarin and was obtained from Aldrich, Catalog No. 25,737-0, MW 175.19. […]
Initial readings were taken to ensure exclusion of rogue wells with abnormally high backgrounds (λ excitation at 360 nm, bandwidth […], λ emission, 460 nm, bandwidth 40 nm). Then, 25 μl of a 10×stock of the putative inhibitor were added per well, mixed for 5 seconds and read kinetically for 10 minutes at ambient temperature to assess background interference and/or any increase in hydrolysis of substrate due to inhibitor.
The thrombin assay was then initiated by adding 25 μl of thrombin/well with a multichannel pipettor and mixed for 5 seconds. The appearence of the fluorescent product (free 7-amido-4-methylcoumarin released from the peptide by thrombin) was followed simultaneously in 48 wells (one reading per minute for 30 minutes, λ excitation at 360 nm, bandwidth 40 nm, λ emission, 460 nm, bandwidth 40 nm). […]

The target in test [3] is T1, thrombin from human plasma. The experiment in a line: Km-based 96-well formatted fluorogenic thrombin inhibition assay.
Test [4] has as its target T1, thrombin from human plasma. The experiment in a line: Km-based chromogenic thrombin inhibition assay (S-2238). The test is classed as biochemical. On the set-up: from tissue; host or cells: human plasma. The conditions noted are these: 8 μM S-2238, 10 mU thrombin, pH 7.2, 35° C., 405 nm. From the text: Specifically, a Km-based chromogenic assay was first employed. […] Measurements at 405 nm are designed to detect the thrombin-induced liberation of p-nitroaniline from the S-2238 substrate. As such, an observed increase in absorbance at 405 nm directly correlates with an increase in hydrolysis of the substrate by thrombin.

Test [5] addresses T1, thrombin from human plasma. The experiment in a line: Vmax-based thrombin inhibition assay (200 μM S-2238). The conditions noted are these: 200 μM S-2238, 40 mU thrombin, pH 7.2, 25° C. The test is classed as biochemical. Set-up: from tissue; host or cells: human plasma.

Consider `CC1CNc2c(cccc2S(=O)(=O)NC(CCCN=C(N)N)C(=O)N2CCC(C)CC2C(=O)NCCCCCC(=O)O)C1` (stereo not drawn) [compound YL-015-15], for which, in test [1], the “plate ELISA signal” value was “did not give a signal above background”. The thrombin inhibition result in test [2] is given as “not inhibitory”. The IC50 (usually the concentration at which inhibition is half-maximal) in test [3] is approximately 50 nM.

Take `CC1CNc2c(cccc2S(=O)(=O)NC(CCCNC(=N)N)C(=O)N2CCC(C)CC2C(=O)NCCCCCCCCCCCC(=O)O)C1` (stereo not drawn) [compound YL-015-10]: the results for the IC50 in test [4], in test [5] and in test [3] were 150 nM, 5 to 8 µM and approximately 80 nM, respectively.
